These results are taken from patent publication US12017975B2, “Myc-Max inhibitor compound therapeutics for cancer treatment, methods and uses associated therewith” (THE UNIVERSITY OF BRITISH COLUMBIA, priority 2018, dated 2024).

Entries after “also recorded” stand apart in the source; their conditions may differ. Read-outs that look alike come from different tables or passages of the source.

One data set deals with T1, Myc-Max complex (Homo sapiens, UniProt P01106+P61244).
T1 construct: GST tagged Myc (residues 368-454); Histidine tagged Max (residues 23-102); made in house; host or cells: E. coli BL21-DE3
T1 sequence (P01106 368-454): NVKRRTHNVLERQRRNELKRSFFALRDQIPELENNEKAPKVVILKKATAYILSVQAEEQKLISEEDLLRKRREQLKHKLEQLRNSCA
T1 sequence (P61244 23-102): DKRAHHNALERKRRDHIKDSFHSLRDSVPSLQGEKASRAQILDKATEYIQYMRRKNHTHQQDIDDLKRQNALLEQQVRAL
Description: Biolayer interferometry of Myc-Max binding to biotinylated E-box DNA. The note with it: for Myc-Max interaction with immobilized E-box DNA: 500 μM compound (FIG. 3C); for BLI binding: TABLE 2. The procedure:
Histidine tagged Max (residues 23-102) and GST tagged Myc (residues 368-454) were overexpressed in E. coli BL21-DE3 cells. Cells were co-lyzed in lysis buffer (20 mM Tris pH 8, 500 mM NaCl, 5% glycerol, 10 mM imidazole, 8 mM BME, 2.1 mM PMSF). After sonication and centrifugation, the complex was first purified by using a Ni-NTA affinity resin. After overnight dialysis to remove the imidazole, the protein sample was applied to a size exclusion chromatography equilibrated with (20 mM Tris pH 8, 150 mM NaCl, 5% glycerol, 0.2 mM TCEP). Fractions containing equal amount of Myc and Max on SDS PAGE were collected and used for the binding assay. The presence of both proteins was validated by Western blot using a specific antibody of each protein (Max (h2) Sc-8011 and c-Myc (9E10) Sc-40, Santa Cruz Biotechnology™)
The direct interaction between biotinylated E-box oligo ([…]) immobilized on a streptavidin biosensor and a purified Myc-Max complex (0.05 mg/ml) was quantified by BLI using OctetRED (ForteBio™). The DNA was first bound to the super-streptavidin sensors over 1000 sec at 25° C. The sensors were next moved into wells containing the reaction buffer (20 mM Tris pH 8, 150 mM NaCl, 5% glycerol, 0.2 mM TCEP, 5% dimethylsulfoxide) for measuring the baseline and next into the Myc-Max complex alone or in presence of the tested inhibitors to study the association of the complex to the DNA.
Direct Binding and disruption of protein-DNA interaction. To study the direct effect of our hit compounds VPC-70063 and VPC-70067 on the interaction between Myc-Max heterodimer and the DNA, we used Bio-Layer Interferometry (BLI, ForteBio™). This technique is a label-free technology allowing the measurement of direct interactions between two partners, one immobilized on a sensor and the other one present in a solution. We applied this technology to study the disruption of the interaction between a biotinylated E-box oligo immobilized on a streptavidin biosensor and a purified Myc-Max complex in presence of our compounds. Therefore, histidine-tagged Max (residues 23-102) and GST tagged Myc (residues 368-454) were overexpressed and co-purified. The fraction containing equal amount of Myc and Max was collected and used for the binding assay (FIG. 3B). The presence of both proteins was validated by Western blot using a specific antibody of each protein. […] Additionally, we tested the ability of our best compound VPC-70063 to disrupt the interaction of MYC/MAX with DNA in a dose dependent manner.

A further data set has as its target T2, Myc-Max interaction (Homo sapiens, UniProt P01106).
T2 construct: expressed in transfected cells; host or cells: PC3 cells
Description: Mammalian two-hybrid assay in PC3 cells. The conditions noted are these: various concentrations. It is filed as cell-based. The procedure: Full lengths Myc and Max were cloned in pBIND and pACT plasmids (CheckMate™, Promega™), respectively. PC3 cells in RPMI 1640 supplemented with 5% FBS were seeded in 96-well plates at 5,000 cells/well. After 24 hours, cells were transfected with 15 ng of pACT-Max, 19.5 ng of pBIND-Myc, and 13.6 ng of the reporter plasmid PG5-luciferase. After 24 hours, cells were treated with various concentrations of the tested inhibitors. Cells were lysed the next day, and the luminescence signal was measured after adding 50 μL of luciferase assay reagent (Promega™). Each measurement was done in 4 replicates with biological replicates of 3. Luciferase levels corresponding to Myc-Max interactions were measured and normalized to a control provided by the commercial kit to discard non-specific effect due to toxicity or direct luciferase inhibition.
The effect of inhibitors of Myc-Max interaction was studied by using a mammalian two hybrid assay. Full lengths Myc and Max were cloned in pBIND and pACT plasmids (CheckMate™, Promega™), respectively. Luciferase levels corresponding to Myc-Max interactions were measured and normalized to a control provided by the commercial kit to discard non-specific effect due to toxicity or direct luciferase inhibition.

In data set [1] the test system is LNCaP cells. The experiment in a line: LNCaP cell viability (PrestoBlue). It is filed as cell-based. The note with it: Homo sapiens; for IC50: 96 hours, 0-25 μM, read-out: IC50 LNCaP cell proliferation / viability. On the procedure:
(§1) LNCaP were plated at 5000 cells per well in RPMI 1640 containing 5% CSS in a 96-well plate, treated with test compounds (0-25 μM) for 96 hours. Cell density was measured using the PrestoBlue™ assay according to the manufacturer's protocol. The percentage of cell survival was normalized to the cell density of control wells treated by vehicle. Viability of Myc-negative […] cells was done similarly but in DMEM supplemented with 5% CSS.
(§2) The effect of hit compounds on Myc-driven cell proliferation was evaluated by measuring the cell viability of LNCaP cells after treatment with increasing concentrations of compounds.

Data set [2] in a line: Cell viability of Myc negative (c-Myc knockout) HO15.19 cells. In kind it is cell-based. The conditions noted are these: rat, HO15.19 cells (c-Myc knockout, Myc-negative); 25 μM; read-out: % inhibition of Myc negative HO15.19 cells (cytotoxicity). On the procedure:
as §1, §2

In data set [3] the test system is Myc-Max transcriptional activity. Description: Cignal c-Myc luciferase reporter assay in LNCaP cells. The note with it: Homo sapiens. It is filed as cell-based. In a few lines: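 Transiently transfected Myc-driven luciferase reporter in LNCaP cells, 10000 cells/well, treated 1 day with compound at the indicated concentrations; luminescence read-out of Myc-regulated signal.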

The test system of a further data set is HO15.19 cells. Description: Cell viability of Myc negative (c-Myc knockout) HO15.19 cells. The note with it: for inhibition at 12 µM: read-out: % inhibition Myc K.O cells (12 uM). In kind it is cell-based. On the procedure: as §1, §2
The test system of data set [4] is LNCaP cells. Description: PARP cleavage (apoptosis) by Western blot in LNCaP cells. The note with it: for PARP cleavage / apoptosis: LNCaP cells, Western blot; for PARP effect: TABLE 2, LNCaP cells. In kind it is cell-based. On the procedure:
After 48 hours of treatment with Myc compounds, LNCaP cells were lysed, and protein sample preparation followed by Western blotting were performed. Blots were incubated with primary antibodies against c-Myc, PARP (Sigma™ 084M4766V), PARP cleaved-Asp214 (Sigma™ SAB4500487) and β-Actin (Sigma™ A2066) overnight at 4° C., followed by appropriate peroxidase-conjugated secondary antibodies. β-actin served as an internal control. Visualization of the immunocomplexes was done by an enhanced chemiluminescence detection system (Millipore™) followed by exposure to X-ray films.
Apoptosis. Myc inhibition induces cell death by cell cycle arrest and apoptosis. Cleavage of PARP-1 by caspases is considered a hallmark of apoptosis and so we measured the ability of compounds to induce PARP cleavage after treatment.

In data set [5] the test system is Myc-Max/UBE2C downstream pathway. Description: UBE2C promoter luciferase reporter assay in 22rv1 cells. It is filed as cell-based. The conditions noted are these: for inhibition at 25 µM: Homo sapiens. The procedure:
Cell transfection was performed using TransIT-2020™ transfection reagents according to the manufacturer's instructions (Mirus™). LNCaP cells were plated at 10000 cells per well and treated for 1 day with the indicated concentration of compound. Myc reporter activity was measured using the Cignal Myc Reporter Assay Kit™ from Qiagen™ (#336841) according to the manufacturer's instructions. For the UBE2C reporter assay, 22rv1 cells were plated at 10000 cells per well in 96-well plates in RPMI media supplemented with 5% charcoal-stripped serum (CSS) and treated for 1 day with 1 μM, 10 μM and 25 μM of compound.
Myc inhibition was recently reported to reduce levels of the constitutively active androgen receptor splice variant AR-V7 in 22rv1 cells. […] The dose-dependent reduction of luciferase levels by the identified hits indicates a Myc-related reduction of AR-V7 level in the cells (see TABLE 1). […] The AR-V7 reduction with the hits was confirmed by Western blot (FIG. 2B).
On the technique in general: Reporter assays use an easily measured gene product as a stand-in for the process of interest.

Setting [6] is: LNCaP, 24 h, LNCaP cells, TABLE 1, read-out: Myc-Max transcriptional activity % inhibition (25 μM).
[7] abbreviates: LNCaP, TABLE 2, assay not named, values match Myc-Max transcriptional activity, read-out: IC50.
Setting [8] is: LNCaP cells, dose response, Cignal c-Myc kit, read-out: IC50 Myc-Max transcriptional activity.

T2 sequence (P01106 whole entry): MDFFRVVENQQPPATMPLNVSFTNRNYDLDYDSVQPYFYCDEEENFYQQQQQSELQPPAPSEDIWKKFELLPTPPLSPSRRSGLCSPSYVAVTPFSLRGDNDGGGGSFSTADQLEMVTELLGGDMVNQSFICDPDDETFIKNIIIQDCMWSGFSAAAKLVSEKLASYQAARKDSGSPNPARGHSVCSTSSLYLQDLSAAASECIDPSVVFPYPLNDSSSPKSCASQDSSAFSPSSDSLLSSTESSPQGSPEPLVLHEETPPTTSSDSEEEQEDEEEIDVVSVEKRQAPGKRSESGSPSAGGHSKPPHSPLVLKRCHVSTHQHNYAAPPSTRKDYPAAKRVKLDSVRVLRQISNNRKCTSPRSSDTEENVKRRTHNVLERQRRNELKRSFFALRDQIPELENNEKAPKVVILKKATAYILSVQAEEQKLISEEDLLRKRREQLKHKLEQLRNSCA

On to `O=[N+]([O-])c1ccc(Nc2ccccc2-c2ccccc2)c2nonc12` [Compound 10074-G5, reference compound], for which the “Myc-Max interaction with immobilized E-box DNA” value at Myc-Max complex is given as “prevented from interacting with the immobilized DNA”. Besides, on Myc-Max interaction, the “effect on Myc-Max interaction” value is “did not show any effect”. The IC50 in the data set with LNCaP cells [1] was determined as 8.7 µM. The inhibition at 96 h, 25 µM in data set [2] amounted to 37%. Further, in data set [3] (setting [6]), the inhibition at 25 µM is 88%.
On to `FC(F)(F)c1cc(NC(=S)NCc2ccccc2)cc(C(F)(F)F)c1` [VPC-70063, 1-benzyl-3-(3,5-bis(trifluoromethyl)phenyl)thiourea], for which the “Myc-Max interaction with immobilized E-box DNA” value on Myc-Max complex is on record as “prevented from interacting with the immobilized DNA”. For the same compound, on Myc-Max complex, the BLI binding entry is “strong”. In addition, at Myc-Max complex (concentration below 100 μM), the “effect on Myc-Max/DNA complex dissociation” value is listed as “did not see any significant effect”. Moreover, the “MYC/MAX binding to DNA” value at Myc-Max complex (concentration higher than 100 μM) is “dose response decrease of the MYC/MAX binding to DNA”. The “effect on Myc-Max interaction” value at Myc-Max interaction was “dose response inhibition of the interaction between the two proteins”. The inhibition at 3 µM in the data set with LNCaP cells [1] (3 μM, read-out: % of LNCaP cells inhibited) worked out at 70%. For the same compound, the figures for the IC50 (with LNCaP cells [1]; in data set [3] (setting [7]); in data set [3] (setting [8])) were 2.5 µM, 9 µM and 8.9 µM, respectively. Also, the “effect on c-Myc knockout cells” value in the data set with HO15.19 cells (3 μM) is “no significant effect”. Further, in the data set with HO15.19 cells (Rattus norvegicus, HO15.19, 2.5 μM (IC50 in LNCaP cells)), the inhibition at 2.5 µM is approximately 7%. In the data set on HO15.19 cells (Rattus norvegicus, HO15.19), the inhibition at 12 µM is 35%. The inhibition at 96 h, 25 µM in data set [2] was determined as 40%. The “PARP cleavage / apoptosis” value in the data set on LNCaP cells [4] was “inducing PARP cleavage; also recorded: induces apoptosis”. In addition, the PARP effect result in the data set with LNCaP cells [4] was “strong”. For the same compound, the “reduction of UBE2C promotor activity” value in data set [5] is “highest reduction of UBE2C promotor activity”. The inhibition at 25 µM in data set [5] worked out at 94%; in data set [3] (LNCaP, TABLE 3, read-out: % Inhibition 25 μM), 106%; in data set [3] (setting [6]) it was 106%.
For the compound `O=C1NC(=S)S/C1=C\c1ccccc1C(F)(F)F` [VPC-70067], the “Myc-Max interaction with immobilized E-box DNA” value on Myc-Max complex is reported as “prevented from interacting with the immobilized DNA”. Moreover, the BLI binding entry on Myc-Max complex is on record as “strong”. Moreover, the results for the IC50 (in the data set with LNCaP cells [1]; in data set [3] (setting [7]); in data set [3] (setting [8])) were 11.1 µM, 22 µM and 22.7 µM, respectively. Also, the inhibition at 12 µM with HO15.19 cells (Rattus norvegicus, HO15.19) amounted to 3%. The “PARP cleavage / apoptosis” value with LNCaP cells [4] was “inducing PARP cleavage”. Also, the PARP effect entry in the data set with LNCaP cells [4] was “good”. For the same compound, the inhibition at 25 µM in data set [5] is 71%; in data set [3] (LNCaP, TABLE 4, read-out: % Inhibition (25 μM)), 98%; in data set [3] (setting [6]), 98%.
